Experiments:
[1] = 101 kPa, Liquid; for speed of sound: Linear variable-path acoustic interferometer; for mass density: Pycnometric method
[2] = xn = mol fraction of the nth substance listed; details: 101 kPa, Liquid; for speed of sound: Linear variable-path acoustic interferometer; for mass density: Pycnometric method

CC(=O)CC(C)C [4-methylpentan-2-one]
[1]
Details | mass density [kg/m3] | speed of sound [m/s]
303.15 K | 791.7 | 1175
308.15 K | 787.7 | 1156
313.15 K | 782.6 | 1138

CC(=O)CC(C)C [4-methylpentan-2-one] + O=S1(=O)CCCC1
[2], x2 = 0
Details | mass density [kg/m3] | speed of sound [m/s]
303.15 K | 791.7 | 1175
308.15 K | 787.7 | 1156
313.15 K | 782.6 | 1138

CCC(C)=O [butanone]
[1]
Details | mass density [kg/m3] | speed of sound [m/s]
303.15 K | 794.6 | 1178
308.15 K | 790.4 | 1158
313.15 K | 783.1 | 1136

CCC(C)=O [butanone] + O=S1(=O)CCCC1
[2], x2 = 0
Details | mass density [kg/m3] | speed of sound [m/s]
303.15 K | 794.6 | 1178
308.15 K | 790.4 | 1158
313.15 K | 783.1 | 1136

CCCC(C)=O [pentan-2-one]
[1]
Details | mass density [kg/m3] | speed of sound [m/s]
303.15 K | 796.6 | 1192
308.15 K | 792.7 | 1176
313.15 K | 785.5 | 1151

CCCC(C)=O [pentan-2-one] + O=S1(=O)CCCC1
[2]
Details | mass density, 303.15 K [kg/m3] | mass density, 308.15 K [kg/m3] | mass density, 313.15 K [kg/m3] | speed of sound, 303.15 K [m/s] | speed of sound, 308.15 K [m/s] | speed of sound, 313.15 K [m/s]
x2 = 0 | 796.6 | 792.7 | 785.5 | 1192 | 1176 | 1151
x2 = 0.0261 | 808.2 | 804.2 | 797.8 | 1203 | 1183 | 1161
x2 = 0.162 | 869.2 | 864.6 | 858.8 | 1246 | 1225 | 1203
x2 = 0.2945 | 929.2 | 924.8 | 919.1 | 1290 | 1271 | 1251
x2 = 0.445 | 998.5 | 994.6 | 989.1 | 1352 | 1340 | 1318
x2 = 0.5296 | 1038.2 | 1034.5 | 1029.1 | 1384 | 1373 | 1353
x2 = 0.6319 | 1086.6 | 1082.8 | 1078 | 1429 | 1418 | 1401
x2 = 0.7498 | 1143.2 | 1139.2 | 1134.7 | 1484 | 1469 | 1450
x2 = 0.8677 | 1200.2 | 1195.8 | 1191.6 | 1536 | 1520 | 1503
x2 = 0.9799 | 1253.2 | 1248.5 | 1243.6 | 1580 | 1562 | 1549

CCC(=O)CC [pentan-3-one]
[1]
Details | mass density [kg/m3] | speed of sound [m/s]
303.15 K | 804.5 | 1197
308.15 K | 799.6 | 1179
313.15 K | 794.3 | 1160

CCC(=O)CC [pentan-3-one] + O=S1(=O)CCCC1
[2]
Details | mass density, 303.15 K [kg/m3] | mass density, 308.15 K [kg/m3] | mass density, 313.15 K [kg/m3] | speed of sound, 303.15 K [m/s] | speed of sound, 308.15 K [m/s] | speed of sound, 313.15 K [m/s]
x2 = 0 | 804.5 | 799.6 | 794.3 | 1197 | 1179 | 1160
x2 = 0.0252 | 815.9 | 811.1 | 805.8 | 1208 | 1191 | 1170
x2 = 0.1627 | 878.1 | 873.1 | 867.6 | 1257 | 1240 | 1218
x2 = 0.2922 | 937.4 | 931.9 | 926.6 | 1300 | 1283 | 1263
x2 = 0.4201 | 996.2 | 991.1 | 985.6 | 1345 | 1331 | 1315
x2 = 0.5234 | 1044.1 | 1039.1 | 1033.7 | 1388 | 1376 | 1361
x2 = 0.6292 | 1093.5 | 1088.4 | 1083.1 | 1435 | 1421 | 1406
x2 = 0.7487 | 1149.4 | 1144.2 | 1139.3 | 1490 | 1473 | 1460
x2 = 0.8644 | 1202.8 | 1198.1 | 1193.2 | 1536 | 1520 | 1506
x2 = 0.9804 | 1253.5 | 1250 | 1244.6 | 1579 | 1566 | 1550

O=S1(=O)CCCC1 [sulfolane]
[1]
Details | mass density [kg/m3] | speed of sound [m/s]
303.15 K | 1261.8 | 1588
308.15 K | 1257 | 1576
313.15 K | 1251.6 | 1558

O=S1(=O)CCCC1 [sulfolane] + CC(=O)CC(C)C
[2]
Details | mass density, 303.15 K [kg/m3] | mass density, 308.15 K [kg/m3] | mass density, 313.15 K [kg/m3] | speed of sound, 303.15 K [m/s] | speed of sound, 308.15 K [m/s] | speed of sound, 313.15 K [m/s]
x1 = 0.0287 | 803.4 | 799.3 | 793.9 | 1185 | 1166 | 1147
x1 = 0.1852 | 866.6 | 862.5 | 856.8 | 1233 | 1215 | 1198
x1 = 0.3272 | 927.3 | 923.3 | 917.6 | 1281 | 1263 | 1247
x1 = 0.4634 | 989.2 | 985.1 | 979.7 | 1335 | 1316 | 1300
x1 = 0.5671 | 1038.9 | 1034.6 | 1029.3 | 1381 | 1361 | 1345
x1 = 0.6671 | 1088.8 | 1083.9 | 1078.5 | 1426 | 1407 | 1391
x1 = 0.7777 | 1145.1 | 1140.7 | 1134.1 | 1479 | 1463 | 1447
x1 = 0.8809 | 1198.5 | 1195.1 | 1187.8 | 1530 | 1513 | 1496
x1 = 0.9829 | 1252.3 | 1249.2 | 1242.3 | 1578 | 1564 | 1550
x1 = 1 | 1261.8 | 1257 | 1251.6 | 1588 | 1576 | 1558

O=S1(=O)CCCC1 [sulfolane] + CCC(=O)CC
[2], x1 = 1
Details | mass density [kg/m3] | speed of sound [m/s]
303.15 K | 1261.8 | 1588
308.15 K | 1257 | 1576
313.15 K | 1251.6 | 1558

O=S1(=O)CCCC1 [sulfolane] + CCC(C)=O
[2]
Details | mass density, 303.15 K [kg/m3] | mass density, 308.15 K [kg/m3] | mass density, 313.15 K [kg/m3] | speed of sound, 303.15 K [m/s] | speed of sound, 308.15 K [m/s] | speed of sound, 313.15 K [m/s]
x1 = 0.0293 | 810.6 | 806.2 | 799.2 | 1191 | 1170 | 1149
x1 = 0.1391 | 869.7 | 865.6 | 858.7 | 1234 | 1215 | 1195
x1 = 0.2575 | 931.6 | 927.5 | 920.9 | 1288 | 1266 | 1247
x1 = 0.3803 | 993.5 | 989.6 | 983.5 | 1341 | 1319 | 1300
x1 = 0.4834 | 1043.1 | 1039.9 | 1034.4 | 1386 | 1366 | 1346
x1 = 0.5854 | 1089.7 | 1086.6 | 1081.8 | 1431 | 1413 | 1395
x1 = 0.7119 | 1145.2 | 1142 | 1137.2 | 1481 | 1465 | 1450
x1 = 0.8428 | 1200.5 | 1196.8 | 1191.8 | 1533 | 1517 | 1502
x1 = 0.9756 | 1252.7 | 1249 | 1243.7 | 1581 | 1568 | 1552
x1 = 1 | 1261.8 | 1257 | 1251.6 | 1588 | 1576 | 1558

O=S1(=O)CCCC1 [sulfolane] + CCCC(C)=O
[2], x1 = 1
Details | mass density [kg/m3] | speed of sound [m/s]
303.15 K | 1261.8 | 1588
308.15 K | 1257 | 1576
313.15 K | 1251.6 | 1558

Reference: the NIST ThermoML archive (doi:10.1021/je900056u)
